Here are results for seven compounds from PubChem BioAssay (NCI).

The structures appear in SMILES notation. Values joined by “and” are separate entries in the source; they are usually repeats but may differ in a detail not shown here. Equal values may be shown once.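 Tested at 5 concentrations; 48 h exposure; 96-well plates; endpoints linearly interpolated, else capped at highest concentration. GI50 is the concentration that inhibits growth by half. TGI: total growth inhibition.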

Common to all, as to experiment: inhibition of tumour cell growth, NCI panel, 48 h
Assay [1] deals with NCI-H460 lung.
For assay [2], the system named is ACHN renal.
For assay [3], the system named is SNB-19 CNS.
Assay [4] deals with MALME-3M melanoma.
The test system of assay [5] is SK-MEL-2 melanoma.
Assay [6] has as its system OVCAR-4 ovarian.
In assay [7] the test system is IGROV1 ovarian.
The subject of assay [8] is SNB-75 CNS.
For assay [9], the system named is DU-145 prostate.
Assay [10] deals with HOP-92 NSCLC.

`Cc1cccc(N(C)C(=O)[C@@H]2[C@H](O)CCN2c2nc(C)cc(C(F)(F)F)c2C#N)c1`: the GI50 is 31.8 µM in assay [1]; 18.3 µM in [2]; 31.1 µM in assay [3]; 19.9 µM in assay [4]; 15.9 µM in [5]; 18.7 µM in [6]. The GI50 was 26.5 µM in assay [7], 31.4 µM in [8], 25.1 µM in [9] and 11 µM in assay [10]. Further, the TGI was more than 100 µM in assay [1]; 41.9 µM in [2]; more than 100 µM in [3]; 59 µM in assay [4]; 35 µM in [5]; more than 100 µM in [6]. For the same compound, the TGI in assay [7] is 94.5 µM; in [8] it was more than 100 µM; in assay [9], more than 100 µM; in assay [10] it was 53.1 µM.
For `Cc1nc([P+](c2ccccc2)(c2ccccc2)c2ccccc2)c(Sc2sc(-c3ccccc3)nc2[P+](c2ccccc2)(c2ccccc2)c2ccccc2)o1`, the GI50 is 1.13 µM in assay [1]; 1.65 µM in [2]; 1.6 µM in assay [3]; 1.36 µM in assay [4]; 2.15 µM in assay [5]; 0.952 µM in assay [6]. Besides, the GI50 is 1.4 µM in assay [7], 1.11 µM in assay [8], 1.22 µM in assay [9] and 0.759 µM in assay [10]. In addition, the TGI in assay [1] turned out to be 2.8 µM; in assay [2], 4.92 µM; in assay [3], 12.2 µM; in [4] it was 7.13 µM; in assay [5], 4.92 µM; in assay [6], 5.82 µM. Moreover, the TGI came out at 4.83 µM in assay [7], 4.31 µM in [8], 4.96 µM in [9] and 3.73 µM in assay [10].
As to `COc1ccc(C2CC(c3cccc(Nc4ccnc5cc(Cl)ccc45)c3)=NN2C=O)cc1` (centres undefined), the GI50 in assay [1] was 0.415 µM; in assay [2] it was 0.867 µM; in assay [3] it was 0.902 µM; in assay [5], 0.457 µM; in assay [6] it was 0.94 µM; in assay [7] it was 1.9 µM. Moreover, the results for the GI50 in [8], in [9] and in assay [10] were 0.244 µM, 0.978 µM and more than 100 µM, respectively. Moreover, the TGI in assay [1] was more than 100 µM; in [2] it was more than 100 µM; in [3], more than 100 µM; in assay [4] it was more than 100 µM; in [5] it was 6.41 µM; in assay [6], more than 100 µM. For the same compound, the TGI in assay [7] was more than 100 µM; in assay [8], 3.01 µM; in assay [9], more than 34.9 µM; in assay [10], more than 100 µM.
Consider `CN(c1ncccc1CNc1nc(Nc2ccc3c(c2)CC(=O)N3)ncc1C(F)(F)F)S(C)(=O)=O`, for which the GI50 in assay [1] was 2.14 µM and 2.95 µM; in assay [2], 2.72 µM and 3.31 µM; in [3], 2.75 µM and 2.89 µM; in [4], 2.98 µM and 2.89 µM; in assay [5] it was 1.57 µM and 1.85 µM; in [6], 2.1 µM and 3.56 µM. Moreover, the GI50 in [7] was 2.42 µM and 1.8 µM; in [8], 1.33 µM and 1.51 µM; in assay [9], 2.88 µM and 2.74 µM; in [10] it was 0.0987 µM and 0.192 µM. Besides, the TGI in assay [1] was 7.32 µM and > 10 µM; in assay [2], more than 100 µM; in assay [3] it was more than 100 µM; in assay [4] it was 10.2 µM and > 10 µM; in [5] it was 3.69 µM and 4.8 µM; in assay [6], 11 µM and > 10 µM. The TGI in assay [7] was more than 100 µM; in [8], 4.78 µM and 4.8 µM; in assay [9], more than 100 µM; in assay [10], 1.85 µM and 5.99 µM.
As for `NS(=O)(=O)c1ccc(Nc2cc(-c3cccc(O)c3)[nH]n2)cc1`, the GI50 in [1] is more than 25 µM; in assay [2], more than 25 µM; in assay [3], more than 25 µM; in assay [4] it was more than 25 µM; in assay [5], more than 25 µM; in [6] it was 13.5 µM. Further, the GI50 was more than 25 µM in assay [7], 24.5 µM in [8], more than 25 µM in assay [9] and 10.2 µM in [10]. Moreover, the TGI in assay [1], in [2], in assay [3], in [4], in assay [5] and in assay [6] was more than 25 µM each time. For the same compound, the TGI in assay [7], in assay [8], in assay [9] and in assay [10] was more than 25 µM throughout.
As to `CCN(CCCN(C)C)Cc1cc(I)cc(C)c1O`, the GI50 is 16.4 µM in [1]; 24.9 µM in assay [2]; 26.9 µM in assay [3]; 19.8 µM in [4]; 19.4 µM in assay [5]; 48.7 µM in assay [6]. The GI50 was 19.8 µM in assay [7], 16.1 µM in [8], 36.8 µM in assay [9] and 10.8 µM in assay [10]. The TGI is 38 µM in assay [1]; 58.6 µM in assay [2]; 63.1 µM in assay [3]; 36.8 µM in assay [4]; 37.4 µM in assay [5]; more than 100 µM in [6]. For the same compound, the TGI in assay [7] was 45.4 µM; in assay [8], 39.7 µM; in assay [9] it was more than 100 µM; in assay [10], 52.3 µM.
Consider `CC(C)(C)c1ccc(S(=O)(=O)Oc2ccc3c4c(c(=O)oc3c2)CCCCC4)cc1`, for which the GI50 in [1] is 7.3 µM; in [2], 14.4 µM; in assay [3], 16.4 µM; in assay [4], 24.8 µM; in [5] it was 16.5 µM; in assay [6] it was 8.13 µM. Also, the GI50 was 14.9 µM in assay [7], 13.3 µM in assay [8], 37.9 µM in [9] and 1.22 µM in [10]. For the same compound, the TGI in assay [1] was more than 100 µM; in assay [2], 34.6 µM; in [3], 52.1 µM; in [4] it was 76.5 µM; in [5], 55.6 µM; in [6], 40.7 µM. The TGI in [7] was 48.5 µM; in assay [8], 36.8 µM; in assay [9], more than 100 µM; in [10], 12.2 µM.
